Molecular target: T1, TXA2 receptor (Homo sapiens, UniProt P21731)
T1 construct: human platelet membrane fraction was prepared; from tissue; host or cells: human platelets (membrane fraction from the blood of normal adult donors)
T1 sequence (P21731 1-343): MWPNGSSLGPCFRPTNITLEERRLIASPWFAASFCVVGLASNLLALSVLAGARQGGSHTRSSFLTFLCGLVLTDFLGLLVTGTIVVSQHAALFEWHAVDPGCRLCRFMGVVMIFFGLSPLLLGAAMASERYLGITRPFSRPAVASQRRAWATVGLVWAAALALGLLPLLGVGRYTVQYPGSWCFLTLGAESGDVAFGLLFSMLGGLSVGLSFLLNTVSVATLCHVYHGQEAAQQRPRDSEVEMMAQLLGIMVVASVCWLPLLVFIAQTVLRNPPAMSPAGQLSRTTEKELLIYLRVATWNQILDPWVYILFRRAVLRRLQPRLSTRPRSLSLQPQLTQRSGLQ
Assay: TXA2 receptor binding assay
Conditions: human platelet membrane fraction; displacement of 2 nM [3H](+)-S-145 sodium salt; 90 min at room temperature; read-out: inhibition activity IC50
Method: Blood which was obtained using a plastic syringe contained 3.8% sodium citrate from the vein of normal human (adult male and female) was put into a plastic tube, and after lightly mixing with tumbling, centrifuged at 1800 rpm, for 10 min. at a room temperature to obtain platelet rich plasma (PRP) in supernatant. The PRP was further centrifuged at 2,300 rpm, for 22 min. at a room temperature to obtain platelets. The obtained platelets was homogenized using homogenizer (Ultra-Turrax), and then, centrifuged at 20,000 rpm, for 10 min. at 4° C. to obtain a fraction of platelet membrane. The membrane fraction was subjected to a quantitative assay for a protein to be adjusted to 2 mg/ml, and kept at −80° C. in a freezer until a binding assay is conducted. […]
To 0.2 ml of a binding reaction mixture (50 mM Tris/HCl, pH 7.4, 10 mM MgCl2), human platelet membrane fraction (0.05 mg) and 26.4 Ci/mmol of 2 nM [^3H](+)-(5Z)-7-[3-endo-[(phenylsulfonyl)amino]bicyclo[2.2.1]hepto-2-exo-yl] heptenic acid sodium salt (Japanese Patent Publication No. H5-79060, referred hereinafter to (+)-S-145 sodium salt) were added, and reacted for 90 min at room temperature. After reaction, the reaction was filtered by using grass fiber filter, washed several times with cold saline, and then, radioactivity remaining on the filter was assayed. […]

An IC50 of 0.15 µM was found for `O=C(O)CCC/C=C\C[C@H]1[C@@H]2CC[C@@H](C2)[C@@H]1NC(=O)c1csc2ccc(O)cc12` [Compound 1] in this work.
An IC50 of 3.8 µM was found for `COC(=O)CCC/C=C\C[C@H]1[C@@H]2CC[C@@H](C2)[C@@H]1NC(=O)c1cccc2ccsc12` [Compound 2] in this work.

— US20030194748A1, “Method for labeling with tritium” (priority 2000, published 2003)
